US12023308B2, “Agents for reversing toxic proteinopathies” (THE BROAD INSTITUTE, INC., priority 2019, dated 2024)
Entries after “also recorded” stand apart in the source; their conditions may differ.

Columns and labels:
Format in all cases: cell-based, human
MUC1-fs [1] = assay: MUC1-fs IF in MKD patient iPSC-derived kidney organoids; conditions: 10 μM, 72 hours, organoids P1-P3
Description: Kidney organoids were immersion-fixed for 15 min in 4% PFA at 4° C. and subsequently frozen in OCT using dry ice and 100% ethanol. Six […] cryostat sections (CM1950, Leica) were thaw-mounted on microscope slides (Fisherbrand™ Superfrost™ Plus, Fisher Scientific) and kept in the cryostat (at −26° C.) for the duration of the sectioning process. Prior to immunostaining, organoid sections were rinsed in PBS for 5 min, incubated for 20 min at room temperature (RT) in PBS blocking solution containing 5% normal donkey serum (530-100ML, EMD Millipore) and 1.5% Tween® 20 (P1379, Sigma-Aldrich), then incubated overnight at 4° C. with primary antibodies diluted in the same blocking solution (1:500, monoclonal Armenian hamster anti-MUC1, Ab80952, Abcam; 1:500, monoclonal Fab-A-VSH anti-fsMUC1, AbD22655.4, Bio-Rad; 1:300 monoclonal Rat anti-E Cadherin [DECMA-1], ab11512, Abcam; 1:500 polyclonal Rabbit anti-Laminin, L9393-100UL, Sigma-Aldrich; 1:500 Na/K-ATPase, ab76020, Abcam; 1:300 Fluorescein labeled Lotus Tetragonolobus Lectin (LTL), FL-1321, Vector laboratories; 1:100, polyclonal, Rabbit anti-TMED9, 21620-1-AP, Proteintech). […]
For a sequence analysis illustration, refer to FIG. 12B. […] MUC1-wt signal intensities were calculated within each WT reference region and averaged for entire section. […]

[2] = tested on: N cells expressing P23H mutant rhodopsin; assay: Cell death (DRAQ7) in N cells expressing P23H mutant rhodopsin; conditions: 5 μM, 72 hours
Description: To study apoptosis and cell death in N and P cells, 384 well Cell Carrier Ultra plates (6057308, Perkin Elmer), pre-coated with 0.25 mg/mL Synthemax II SC Substrate (3535, Corning) were used. For UPR branch activation experiments (FIGS. 2B, 9I, 9J and 9G) N and P cells were treated as described in the corresponding figure legends. CellEvent Caspase-3/7 Green Detection Reagent (C10423, Thermo Fisher Scientific®) and DRAQ7 (DR71000, Biostatus) were used at 1:5000 to monitor apoptosis and cell death respectively. Cells were imaged daily during 4 days to monitor viability and image analysis was performed as described below. For rescue experiments, P cells were plated on 96 well Cell Carrier Ultra microplates (6055302, Perkin Elmer) at 30,000 cells/well and cultured for 24 hr. […]
Caspase 3/7 activation and/or DRAQ7 staining were used to calculate the fraction of cells going through apoptosis and/or cell death, respectively. Single cells were first identified using the digital phase contrast channel and cell number was calculated. Fluorescence intensities were then measured and the threshold for Caspase 3/7 and DRAQ7 positive staining was determined. As an output, the fraction of live (neither caspase3/7 nor DRAQ7 signal detected), apoptotic (caspase3/7 positive) or dead cells (DRAQ7 positive) was calculated in each well at a particular time point.

huntingtin (97 polyQ) = assay: Huntingtin-GFP (97 polyQ) accumulation in HEK cells; conditions: 10 μM, 72 hours
Description: HEK293T cells were transfected with Huntingtin 97Q repeats fused to GFP and selected in 0.8 mg/mL G418 (Thermo Fisher Scientific®).
For GFP-Huntingtin experiments (FIGS. 15G and 15H), GFP signal in each cell was calculated using the “spot” identification feature, and total spot intensity for single cells was calculated and averaged for each well.
HEK293T stably expressing huntingtin 97Q-GFP were treated with 10 μM of BRD-4780 or vehicle DMSO, then monitored for GFP intensity by live cell imaging.

MUC1-fs [3] = assay: MUC1-fs subcellular distribution (co-localization IF) in P cells
Description: Cell nuclei were first identified using Hoechst staining, and cell number was calculated. Cytoplasmic regions were then detected around each nucleus based on combined channels. The cells from the edge of the field were eliminated from the analysis. For the quantification of protein abundance, the total signal intensity value for each antibody was calculated separately in the cell cytoplasm and the average signal per cell was calculated for each well. For quantitation of MUC1-fs cellular distribution and trafficking, the analysis was performed as described in FIG. 13A using the “spot” identification feature for the detection of MUC1-fs and the different organelles.
Detection of MUC1-fs in P cells at baseline and following secretory pathway perturbations was performed using immunoblot and IF analyses. […] For IF experiments (FIGS. 5B-5D and 13A-13C), P cells were plated in 384-well plates at 12,000 cells/well.

## CC(C)[C@@H]1[C@H]2CC[C@H](C2)[C@H]1N (racemic) [BRD-4780, 2-endo-amino-3-exo-isopropylbicyclo[2.2.1]heptane]
MUC1-fs [1]
  MUC1-fs protein in patient kidney organoids: cleared the mutant protein from intracellular compartments in all patient organoids
[2]
  viability of cells expressing P23H mutant: significantly improved
Huntingtin (97 polyQ)
  intracellular accumulation of GFP-tagged mutant huntingtin (97 polyQ): did not reverse or diminish the intracellular accumulation; also recorded: no effect on mutant huntingtin
MUC1-fs [3]
  MUC1-fs subcellular distribution: reduced in the early secretory compartment
